Legend:
Mcl-1 protein = Mcl-1 protein (UniProtKB Q07820) (Homo sapiens, UniProt Q07820); experiment: Inhibition of Mcl-1 by the fluorescence polarisation technique; format: binding; settings: fluorescein labelled ligand 1 nM, Mcl-1 protein 5 nM, ~2 hours at room temperature; read-out: IC50 (μM) Mcl-1 FP
Procedure: The relative binding potency of each compound was determined via Fluorescence Polarisation (FP). The method utilised a Fluorescein labelled ligand (Fluorescein-βAla-Ahx-A-REIGAQLRRMADDLNAQY-OH; mw 2,765) which binds to the Mcl-1 protein (such that Mcl-1 corresponds to the UniProtKB® primary accession number: Q07820) leading to an increased anisotropy measured in milli-polarisation (mP) units using a reader. The addition of a compound which binds competitively to the same site as the ligand will result in a greater proportion of unbound ligand in the system indicated by a decrease in mP units.
An 11 point serial dilution of each compound was prepared in DMSO and 2 μl transferred into flat bottomed, low binding, 384-well plate (final DMSO concentration 5%). 38 μl of buffer (10 mM 4-(2-hydroxyethyl)-1-piperazineethanesulfonic acid [HEPES], 150 mM NaCl, 0.05% Tween 20, pH 7.4), containing the Fluorescein labelled ligand (final concentration 1 nM) and Mcl-1 protein (final concentration 5 nM) was then added.
Assay plates were incubated ˜2 hours at room temperature before FP was measured on a […] Synergy2 reader (Ex. 528 nm, Em. 640 nm, Cut off 510 nm) and mP units calculated. The binding of increasing doses of test compound was expressed as a percentage reduction in mP compared to a window established between ‘5% DMSO only’ and ‘100% inhibition’ controls. 11-point dose response curves were plotted with XL-Fit software using a 4-Parameter Logistic Model (Sigmoidal Dose-Response Model) and the inhibitory concentrations that gave a 50% reduction in mP (IC50) were determined.

[1] = test system: H929 multiple myeloma tumour line; experiment: In vitro cytotoxicity (MTT, Microculture Tetrazolium Assay); format: cell-based; settings: Homo sapiens, NCI-H929; H929 cells, 48 hours exposure, cell viability
Procedure: The cytotoxicity studies were carried out on the H929 multiple myeloma tumour line.
The cells are distributed onto microplates and exposed to the test compounds for 48 hours.
The cell viability is then quantified by a colorimetric assay, the Microculture Tetrazolium Assay (Cancer Res., 1987, 47, 939-942).

Sequence of Mcl-1 protein (Q07820 whole entry): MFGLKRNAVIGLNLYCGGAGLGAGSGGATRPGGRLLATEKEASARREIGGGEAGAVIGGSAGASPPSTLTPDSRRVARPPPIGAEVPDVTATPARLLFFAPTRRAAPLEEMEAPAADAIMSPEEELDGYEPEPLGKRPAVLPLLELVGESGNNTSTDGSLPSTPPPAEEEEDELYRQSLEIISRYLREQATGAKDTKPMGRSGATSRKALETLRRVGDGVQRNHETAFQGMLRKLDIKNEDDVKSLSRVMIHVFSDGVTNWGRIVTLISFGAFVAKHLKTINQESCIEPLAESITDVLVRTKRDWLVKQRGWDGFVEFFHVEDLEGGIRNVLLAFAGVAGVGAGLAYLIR

IC50 (Mcl-1 protein) | Compound | IC50 [1]
0.00181 µM | COc1ccccc1-c1nccc(COc2ccccc2C[C@@H](Oc2ncnc3sc(-c4ccc(F)cc4)c(-c4c(C)c(Cl)c(OCCN5CCN(C)CC5)c(Cl)c4C)c23)C(=O)O)n1 [Preparation 13, (2R)-2-{[5-{3,5-dichloro-2,6-dimethyl-4-[2-(4-methylpiperazin-1-yl)ethoxy]phenyl}-6-(4-fluorophenyl)thieno[2,3-d]pyrimidin-4-yl]oxy}-3-(2-{[2-(2-methoxyphenyl)pyrimidin-4-yl]methoxy}phenyl)propanoic Acid] | 0.025 µM
0.453 µM | CCOC(=O)OC(C)OC(=O)[C@@H](Cc1ccccc1OCc1ccnc(-c2ccccc2OC)n1)Oc1ncnc2sc(-c3ccc(F)cc3)c(-c3c(C)c(Cl)c(OCCN4CCN(C)CC4)c(Cl)c3C)c12 (stereo partly drawn) [Example 15, 1-[(ethoxycarbonyl)oxy]ethyl (2R)-2-{[5-{3,5-dichloro-2,6-dimethyl-4-[2-(4-methylpiperazin-1-yl)ethoxy]phenyl}-6-(4-fluorophenyl)thieno[2,3-d]pyrimidin-4-yl]oxy}-3-(2-{[2-(2-methoxyphenyl)pyrimidin-4-yl]methoxy}phenyl)propanoate] | 0.068 µM
1.54 µM | COc1ccccc1-c1nccc(COc2ccccc2C[C@@H](Oc2ncnc3sc(-c4ccc(F)cc4)c(-c4c(C)c(Cl)c(OCCN5CCN(C)CC5)c(Cl)c4C)c23)C(=O)OC(C)OC(=O)N(C)C)n1 (stereo partly drawn) [Example 17, 1-[(dimethylcarbamoyl)oxy]ethyl (2R)-2-{[5-{3,5-dichloro-2,6-dimethyl-4-[2-(4-methylpiperazin-1-yl)ethoxy]phenyl}-6-(4-fluorophenyl)thieno[2,3-d]pyrimidin-4-yl]oxy}-3-(2-{[2-(2-methoxyphenyl)pyrimidin-4-yl]methoxy}phenyl)propanoate] | 0.702 µM
0.438 µM | COc1ccccc1-c1nccc(COc2ccccc2CC(Oc2ncnc3sc(-c4ccc(F)cc4)c(-c4ccc(OCCN5CCN(C)CC5)c(Cl)c4C)c23)C(=O)OC(C)OC(=O)N(C)C)n1 [Example 7, 1-[(dimethylcarbamoyl)oxy]ethyl (2R)-2-{[(5Sa)-5-{3-chloro-2-methyl-4-[2-(4-methylpiperazin-1-yl)ethoxy]phenyl}-6-(4-fluorophenyl)thieno[2,3-d]pyrimidin-4-yl]oxy}-3-(2-{[2-(2-methoxyphenyl)pyrimidin-4-yl]methoxy}phenyl)propanoate] | 
